Data set [1] deals with Homo sapiens. Kind of data set: Evaluated in vitro for anesthetic activity in man and minimum alveolar concentration (MAC) was determined. Also on record: unit not given here. In kind it is functional.
Data set [2] can be described thus: Partition coefficient was determined in oil/gas system and value was reported. In kind it is ADME.
The test system of data set [3] is Canis familiaris. Kind of data set: Evaluated in vitro for anesthetic activity in dog and minimum alveolar concentration (MAC) was determined. The class given is functional, Canis lupus familiaris. More on the design: unit not given here.
For data set [4], the system named is Mus musculus. Kind of data set: Evaluated in vitro for anesthetic activity in mice and ED50 value was reported. The class given is functional.

Take `FC(F)OC(F)(F)C(F)Cl` (stereo not drawn): the MAC in data set [1] is reported as 1.68; in data set [3], 2.06. Besides, the Partition coefficient in data set [2] came to 98.

`ClC(Cl)Cl` [CHLOROFORM]: the MAC in data set [1] was 0.5; in data set [3], 0.77. Moreover, the ED50 in data set [4] is given as 0.84.

Regarding `FC(F)(F)C(Cl)Br` (stereo not drawn) [HALOTHANE], the MAC in data set [1] is listed as 0.74; in data set [3] it was 0.87. The same molecule gave a Partition coefficient in data set [2] of 220. In data set [4], this molecule displayed an ED50 of 0.77.

For `FC(F)OC(Cl)C(F)(F)F` (stereo not drawn) [ISOFLURANE], the MAC worked out at 1.15 in data set [1] and 1.28 in data set [3]. This molecule also yielded a Partition coefficient in data set [2] of 97. The ED50 in data set [4] worked out at 0.57.

With `COC(F)(F)C(Cl)Cl` [METHOXYFLURANE], the results for the MAC in data set [1] and in data set [3] were 0.16 and 0.24, respectively. The Partition coefficient in data set [2] was 950. For the same molecule, the ED50 in data set [4] is 0.22.
